This is an account of results in patent publication US8212050B2, “Amidine compounds and herbicides” (Nippon Soda Co., Ltd., priority 2005, dated 2012).

As to `C#CCOc1cc(N=C(C=NOC)N2CCCC2)c(F)cc1Cl` [compound 190, 2-(4-chloro-2-fluoro-5-propargyloxyphenylimino)-2-(pyrrolidine-1-yl)acetaldehyde O-methyloxime], the melting point was in the range of 73 to 75 °C.

For `CCOC(=O)C(C)Oc1cc(N=C(C(N)=O)N2CCCC2)c(Cl)cc1Cl` (centres unmarked) [compound 293, 2-[2,4-dichloro-5-(1-ethoxycarbonylethoxy)phenylimino]-2-(pyrrolidine-1-yl)acetamide], the melting point fell in the range of 160 to 163 °C.
